Legend:
Amaranthus retroflexus = experiment: greenhouse post-emergence herbicidal test, pig weed; assay type: in vivo; conditions: 2 to 4 weeks; for post-emergence action against pig weed: application rate 1.0 kg/ha a.s.; for post-emergence control of pig weed: application rate 0.5 kg/ha a.s.
Source text: (§1) The seeds of the test plants were sown separately for each species. For the post-emergence treatment, the test plants were first grown to a height of 3 to 15 cm, depending on the plant habit, and only then treated with the active ingredients which had been suspended or emulsified in water. For this purpose, the test plants were either sown directly and grown in the same containers, or they were first grown separately as seedlings and transplanted into the test containers a few days prior to treatment. The rate of application for the post-emergence treatment was 1.0 or 0.5 kg/ha of a.s. (active substance). Depending on the species, the plants were kept at 10-25° C. or 20-35° C. The test period extended over 2 to 4 weeks. During this time, the plants were tended, and their response to the individual treatments was evaluated. Evaluation was carried out using a scale from 0 to 100.100 means no emergence of the plants, or complete destruction of at least the aerial parts, and 0 means no damage, or normal course of growth. The plants used in the greenhouse experiments belonged to the following species: [table]

Chenopodium album = experiment: greenhouse post-emergence herbicidal test, lambsquarters; assay type: in vivo; conditions: 2 to 4 weeks; for post-emergence action against lambsquarters: application rate 1.0 kg/ha a.s.; for post-emergence control of lambsquarters: application rate 0.5 kg/ha a.s.
Source text: as §1

Setaria viridis = experiment: greenhouse post-emergence herbicidal test, green foxtail; assay type: in vivo; conditions: 2 to 4 weeks; for post-emergence action against green foxtail: application rate 1.0 kg/ha a.s.; for post-emergence control of green foxtail: application rate 0.5 kg/ha a.s.
Source text: as §1

SMILES | post-emergence action against pig weed (Amaranthus retroflexus) | post-emergence action against lambsquarters (Chenopodium album) | post-emergence action against green foxtail (Setaria viridis) | post-emergence control of pig weed (Amaranthus retroflexus) | post-emergence control of lambsquarters (Chenopodium album) | post-emergence control of green foxtail (Setaria viridis) | melting point [°C]
CNC(=O)C(NC(=O)c1cn(C)nc1C(F)(F)F)C(O)c1cccs1 (mixture of isomers) [Compound 3.5] | very good | very good | very good | – | – | – | –
CNC(=O)C(NC(=O)c1cn(C)nc1C(F)(F)F)C(OC(=O)N(C)C)c1cccs1 (mixture of isomers) [Compound 3.6] | – | – | – | very good | very good | very good | –
CNC(=O)C(NC(=O)c1cn(C)nc1C(F)(F)F)C(O)c1ccn[nH]1 (mixture of isomers) [Compound 3.17] | very good | very good | very good | – | – | – | –
CNC(=O)C(NC(=O)c1cn(C)nc1C(F)(F)F)C(OC(C)=O)c1ccn[nH]1 (mixture of isomers) [Compound 3.19] | – | – | – | very good | very good | very good | –
CNC(=O)C(NC(=O)c1cn(C)nc1C(F)(F)F)C(O)c1nccs1 (mixture of isomers) [Compound 3.51] | very good | very good | very good | – | – | – | –
CNC(=O)C(NC(=O)c1cn(C)nc1C(F)(F)F)C(O)c1nccs1 (mixture of isomers) [Compound 3.52] | very good | very good | very good | – | – | – | –
CNC(=O)C(NC(=O)c1cn(C)nc1C(F)(F)F)C(OC(C)=O)c1nccs1 (mixture of isomers) [Compound 3.54] | – | – | – | very good | very good | very good | –
CNC(=O)C(NC(=O)c1cn(C)nc1C(F)(F)F)C(OC(=O)N(C)C)c1nccs1 (mixture of isomers) [Compound 3.57] | very good | very good | very good | – | – | – | –
CNC(=O)C(NC(=O)c1cn(C)nc1C(F)(F)F)C(OC(=O)N(C)C)c1nccs1 (mixture of isomers) [Compound 3.59] | very good | very good | very good | – | – | – | –
CNC(=O)C(NC(=O)c1cn(C)nc1C(F)(F)F)C(O)c1ccccn1 (racemic) [Compound 3.1] | very good | very good | very good | – | – | – | –
CNC(=O)C(NC(=O)c1cn(C)nc1C(F)(F)F)C(O)c1cccc(C)n1 (racemic) [Compound 3.2] | – | – | – | very good | very good | very good | –
CNC(=O)C(NC(=O)c1cscc1C(F)(F)F)C(O)c1cnc2ccccc2c1 (racemic) [Compound 3.15, rac-erythro-N-(2-hydroxy-1-methylcarbamoyl-2-quinolin-3-ylethyl)-4-trifluoromethyl-thiophene-3-carboxamide] | – | – | – | – | – | – | 206
CNC(=O)C(NC(=O)c1cn(C)nc1C(F)(F)F)C(O)c1ccn(C)n1 (racemic) [Compound 3.33] | very good | very good | very good | – | – | – | –

— patent publication US20070270312A1, “Heteroaroyl-Substituted Serineamides” (priority 2004, published 2007)
